Laboratory results from PMC9542405, “Design, synthesis and antitumor activity of 5-trifluoromethylpyrimidine derivatives as EGFR inhibitors” (Journal of Enzyme Inhibition and Medicinal Chemistry, 2022).

Experiments:
[1] = target: T1, EGFR^wt-TK (Homo sapiens, UniProt P00533); assay: In vitro EGFR^wt-TK assay (ELISA kit); type: biochemical; conditions: mean ± SD of three replicates; for inhibition at 1 µM: read-out: EGFR^wt-TK inhibition rate; for inhibition at 1 µM / EGFR^wt-TK inhibition rate: 1 μM
T1 construct: purchased
T1 sequence (P00533 25-1210): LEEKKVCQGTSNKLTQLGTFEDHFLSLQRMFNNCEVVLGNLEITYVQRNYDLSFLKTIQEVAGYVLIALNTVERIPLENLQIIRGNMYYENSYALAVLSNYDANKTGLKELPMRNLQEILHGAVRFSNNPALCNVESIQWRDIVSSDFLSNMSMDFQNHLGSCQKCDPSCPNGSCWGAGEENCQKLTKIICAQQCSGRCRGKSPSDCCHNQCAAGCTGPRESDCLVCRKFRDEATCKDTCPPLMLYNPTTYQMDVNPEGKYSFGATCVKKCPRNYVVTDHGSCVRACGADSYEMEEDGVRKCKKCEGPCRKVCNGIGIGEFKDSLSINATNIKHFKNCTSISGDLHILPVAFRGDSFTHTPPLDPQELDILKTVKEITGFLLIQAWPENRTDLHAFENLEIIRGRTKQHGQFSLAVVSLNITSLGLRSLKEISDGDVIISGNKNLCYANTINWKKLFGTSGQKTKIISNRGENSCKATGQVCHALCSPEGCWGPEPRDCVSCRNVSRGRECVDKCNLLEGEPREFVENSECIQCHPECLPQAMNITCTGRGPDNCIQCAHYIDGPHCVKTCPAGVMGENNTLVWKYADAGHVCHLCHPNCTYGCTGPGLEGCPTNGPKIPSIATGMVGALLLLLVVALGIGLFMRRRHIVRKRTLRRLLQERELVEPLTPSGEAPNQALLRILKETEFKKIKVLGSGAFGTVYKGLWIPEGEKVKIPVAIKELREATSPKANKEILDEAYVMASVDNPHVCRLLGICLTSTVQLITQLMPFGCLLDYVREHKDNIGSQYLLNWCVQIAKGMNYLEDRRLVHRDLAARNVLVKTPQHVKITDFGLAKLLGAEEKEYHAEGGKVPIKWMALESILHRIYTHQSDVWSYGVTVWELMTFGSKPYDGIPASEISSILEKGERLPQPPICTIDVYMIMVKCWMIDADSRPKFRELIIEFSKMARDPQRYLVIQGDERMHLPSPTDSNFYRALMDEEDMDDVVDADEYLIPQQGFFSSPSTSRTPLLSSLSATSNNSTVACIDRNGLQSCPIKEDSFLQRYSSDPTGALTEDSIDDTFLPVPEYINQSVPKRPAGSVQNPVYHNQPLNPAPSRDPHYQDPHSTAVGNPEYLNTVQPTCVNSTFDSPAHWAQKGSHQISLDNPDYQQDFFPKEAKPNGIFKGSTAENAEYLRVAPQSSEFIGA
Experimental: The IC50 values of target compounds against EGFR^wt were calculated from the dose − response curve under Graph-Pad Prism 9, which was tested at the different concentrations.

[2] = test system: A549 cells; assay: In vitro activity against cancer cell lines (MTT), A549; type: cell-based; conditions: Homo sapiens, mean ± SD of three replicates
Text: (§1) Co., Ltd. A549 (Human non-small-cell lung cancer cell line) cells, MCF-7 (Human breast cancer
(§2) cell line) cells, and PC-3 (Human prostate cancer cell line) cells. They were all purchased from the
(§3) Shanghai Cell Bank of the Chinese Academy of Sciences. NRK-52E (Normal rat kidney cell line)
(§4) cells donated by Guizhou Medicinal University were also used to evaluate the cytotoxicity.

[3] = test system: MCF-7 cells; assay: In vitro activity against cancer cell lines (MTT), MCF-7; type: cell-based; conditions: Homo sapiens, MCF7, mean ± SD of three replicates
Text: as §1, §2, §3, §4

[4] = test system: PC-3 cells; assay: In vitro activity against cancer cell lines (MTT), PC-3; type: cell-based; conditions: Homo sapiens, mean ± SD of three replicates
Text: as §1, §2, §3, §4

SMILES	inhibition at 1 µM [1]	IC50 [2]	IC50 [3]	IC50 [4]	melting point	EGFR^wt-TK inhibition rate [1]	IC50 [1]
CNC(=O)c1sccc1Nc1nc(Nc2ccc(NC(=O)c3cccc(C(F)(F)F)c3)cc2)ncc1C(F)(F)F [Compound 9f, 3-{5-Trifluoromethyl-2-[4-(3-trifluoromethyl-benzoylamino)-phenylamino]-pyrimidin-4-ylamino}-thiophene-2-carboxylic acid methylamide]	41.1 ± 1.79%	5.13 ± 0.46 µM	6.54 ± 0.53 µM	12.2 ± 1.54 µM	232 to 233.5 °C		
CNC(=O)c1sccc1Nc1nc(Nc2ccc(NC(=O)C3CCCC3)cc2)ncc1C(F)(F)F [Compound 9n, 3-{2-[4-(Cyclopentanecarbonyl-amino)-phenylamino]-5-trifluoromethyl-pyrimidin-4-ylamino}-thiophene-2-carboxylic acid methylamide]	18.9 ± 1.14%	13.8 ± 1.57 µM	> 20 µM	> 20 µM	246.4 to 247.2 °C		
C#CC(=O)Nc1ccc(Nc2ncc(C(F)(F)F)c(Nc3ccsc3C(=O)NC)n2)cc1 [Compound 9k, 3-[2-(4-Propynoylamino-phenylamino)-5-trifluoromethyl-pyrimidin-4-ylamino]-thiophene-2-carboxylic acid methylamide]	> 50%	1.82 ± 0.49 µM	4.91 ± 0.83 µM	15.4 ± 2.38 µM		55.73 ± 2.14%	0.48 ± 0.073 µM
CNC(=O)c1sccc1Nc1nc(Nc2ccc(NC(=O)Nc3ccc(F)cc3)cc2)ncc1C(F)(F)F [Compound 9x, 3–(2-{4-[3–(4-Fluoro-phenyl)-ureido]-phenylamino}-5-trifluoromethyl-pyrimidin-4-ylamino)-thiophene-2-carboxylic acid methylamide]	44.5 ± 1.84%	4.25 ± 0.86 µM	6.38 ± 0.97 µM	11.5 ± 1.23 µM	> 250 °C		
CNC(=O)c1sccc1Nc1nc(Nc2ccc(NC(=O)C3CC3)cc2)ncc1C(F)(F)F [Compound 9l, 3-{2-[4-(Cyclopropanecarbonyl-amino)-phenylamino]-5-trifluoromethyl-pyrimidin-4-ylamino}-thiophene-2-carboxylic acid methylamide]	12.6 ± 1.07%	16.5 ± 2.31 µM	> 20 µM	> 20 µM	> 250 °C		
CNC(=O)c1sccc1Nc1nc(Nc2ccc(NC(=O)Nc3cccc(F)c3)cc2)ncc1C(F)(F)F [Compound 9w, 3-(2-{4-[3–(3-Fluoro-phenyl)-ureido]-phenylamino}-5-trifluoromethyl-pyrimidin-4-ylamino)-thiophene-2-carboxylic acid methylamide]	47.7 ± 1.72%	3.98 ± 0.83 µM	6.15 ± 0.77 µM	10.6 ± 1.74 µM	> 250 °C		
CNC(=O)c1sccc1Nc1nc(Nc2ccc(NC(=O)c3ccc(F)cc3)cc2)ncc1C(F)(F)F [Compound 9d, 3-{2-[4-(4-Fluoro-benzoylamino)-phenylamino]-5-trifluoromethyl-pyrimidin-4-ylamino}-thiophene-2-carboxylic acid methylamide]	49.38 ± 0.47%	3.75 ± 0.55 µM		16.7 ± 1.53 µM	217.2 to 219.3 °C		
CCC(=O)Nc1ccc(Nc2ncc(C(F)(F)F)c(Nc3ccsc3C(=O)NC)n2)cc1 [Compound 9i, 3-[2-(4-Propionylamino-phenylamino)-5-trifluoromethyl-pyrimidin-4-ylamino]-thiophene-2-carboxylic acid methylamide]	11.9 ± 0.35%	17.8 ± 1.67 µM	> 20 µM	> 20 µM			
CNC(=O)c1sccc1Nc1nc(Nc2ccc(NC(=O)C=Cc3ccc(F)cc3)cc2)ncc1C(F)(F)F [Compound 9v, 3–(2-{4-[3-(4-Fluoro-phenyl)-acryloylamino]-phenylamino}-5-trifluoromethyl-pyrimidin-4-ylamino)-thiophene-2-carboxylic acid methylamide]	> 50%	0.46 ± 0.27 µM	4.13 ± 0.21 µM	7.88 ± 1.34 µM	248.8 to 249.1 °C	58.14 ± 1.76%	0.14 ± 0.053 µM
CNC(=O)c1sccc1Nc1nc(Nc2ccc(NC(=O)C3CCC3)cc2)ncc1C(F)(F)F [Compound 9m, 3-{2-[4-(Cyclobutanecarbonyl-amino)-phenylamino]-5-trifluoromethyl-pyrimidin-4-ylamino}-thiophene-2-carboxylic acid methylamide]	13.3 ± 0.83%	15.1 ± 2.29 µM	> 20 µM	> 20 µM	236.1 to 236.4 °C		
CNC(=O)c1sccc1Nc1nc(Nc2ccc(NC(=O)C(C)C)cc2)ncc1C(F)(F)F [Compound 9j, 3-[2-(4-Isobutyrylamino-phenylamino)-5-trifluoromethyl-pyrimidin-4-ylamino]-thiophene-2-carboxylic acid methylamide]	8.76 ± 0.68%	> 20 µM	> 20 µM	> 20 µM			
CNC(=O)c1sccc1Nc1nc(Nc2ccc(NC(=O)C3CCC(=O)CC3)cc2)ncc1C(F)(F)F [Compound 9q, N-Methyl-3-((2-((4-(4-oxocyclohexane-1-carboxamido)phenyl)amino)-5-(trifluoromethyl)pyrimidin-4-yl)amino)thiophene-2-carboxamide]	35.5 ± 0.89%	7.65 ± 0.39 µM	10.6 ± 1.58 µM	> 20 µM			
CNC(=O)c1sccc1Nc1nc(Nc2ccc(NC(=O)C=Cc3ccccc3)cc2)ncc1C(F)(F)F [Compound 9t, 3-{2-[4-(3-Phenyl-acryloylamino)-phenylamino]-5-trifluoromethyl-pyrimidin-4-ylamino}-thiophene-2-carboxylic acid methylamide]	> 50%	3.67 ± 0.61 µM	6.45 ± 0.53 µM	> 20 µM	212.5 to 213.8 °C	53.56 ± 1.69%	0.26 ± 0.071 µM
CNC(=O)c1sccc1Nc1nc(Nc2ccc(NC(=O)C3CCN(C)CC3)cc2)ncc1C(F)(F)F [Compound 9r, 1-Methyl-piperidine-4-carboxylicacid{4-[4-(2-methylcarbamoyl-thiophen-3-ylamino)-5-trifluoromethyl-pyrimidin-2-ylamino]-phenyl}-amide]	33 ± 0.57%	8.41 ± 0.92 µM	11.2 ± 1.47 µM	> 20 µM	210.8 to 211.6 °C		
CNC(=O)c1sccc1Nc1nc(Nc2ccc(NC(=O)C3CCN(C(C)=O)CC3)cc2)ncc1C(F)(F)F [Compound 9s, 1-Acetyl-piperidine-4-carboxylicacid{4-[4-(2-methylcarbamoyl-thiophen-3-ylamino)-5-trifluoromethyl-pyrimidin-2-ylamino]-phenyl}-amide]	37.1 ± 0.46%	6.92 ± 0.38 µM	9.75 ± 0.85 µM	> 20 µM	> 250 °C		
CNC(=O)c1sccc1Nc1nc(Nc2ccc(NC(=O)c3ccc(F)c(F)c3)cc2)ncc1C(F)(F)F [Compound 9e, 3-{2-[4-(3,4-Difluoro-benzoylamino)-phenylamino]-5-trifluoromethyl-pyrimidin-4-ylamino}-thiophene-2-carboxylic acid methylamide]	> 50%	2.77 ± 0.59 µM		17 ± 1.82 µM	218.9 to 219.7 °C	54.49 ± 1.44%	0.44 ± 0.11 µM
